{"source": "paper PMC3756485", "about": "(The Biochemical journal, 2012)", "key": {"PvENT4 [1]": {"biological_target": "T1, PvENT4 (Plasmodium vivax, UniProt A5K9X9)", "assay_type": "cell-based", "settings": "60 min; for Uptake of radiolabeled substrate relative to H2O-injected oocytes: 1.5 μM radiolabeled compound; for Saturability of concentration-dependent uptake (Michaelis-Menten): concentrations up to 10 mM"}, "PfENT4 [2]": {"biological_target": "T2, PfENT4 (Plasmodium falciparum, UniProt Q8I2A8)", "assay_type": "cell-based", "settings": "60 min; for Uptake of radiolabeled substrate relative to H2O-injected oocytes: 1.5 μM radiolabeled compound; for Saturability of concentration-dependent uptake (Michaelis-Menten): concentrations up to 10 mM"}, "PvENT4 [3]": {"biological_target": "T1, PvENT4", "test": "cell-based"}, "PfENT4 [4]": {"biological_target": "T2, PfENT4", "test": "cell-based"}, "PfENT1": {"system": "PfENT1", "settings": "cited from earlier work"}, "[5]": {"system": "P. falciparum phosphodiesterase-1", "settings": "cited from earlier work"}, "P. falciparum parasites": {"system": "P. falciparum parasites", "settings": "read-out: IC50, in vitro growth; P. falciparum FCR-3 strain parasites; cited from earlier work"}, "[6]": {"settings": "read-out: Inhibition of adenine uptake"}}, "data": [{"smiles": "Nc1nc2c(ncn2[C@H]2C[C@H](O)[C@@H](CO)O2)c(=O)[nH]1", "note": "[2′-deoxyguanosine]", "values": [{"measurement": "Uptake of radiolabeled substrate relative to H2O-injected oocytes", "setting": "PvENT4 [1]", "result": "greater uptake"}, {"measurement": "Uptake of radiolabeled substrate relative to H2O-injected oocytes", "setting": "PfENT4 [2]", "result": "greater uptake"}]}, {"smiles": "O=c1cc[nH]c(=O)[nH]1", "note": "[uracil]", "values": [{"measurement": "Uptake of radiolabeled substrate relative to H2O-injected oocytes", "setting": "PvENT4 [1]", "result": "less accumulation"}]}, {"smiles": "O=[N+]([O-])c1ccc(CSc2ncnc3c2ncn3[C@@H]2O[C@H](CO)[C@@H](O)[C@H]2O)cc1", "note": "[NBMPR, nitrobenzylmercaptopurineriboside]", "values": [{"measurement": "Inhibition of adenine uptake", "setting": "PvENT4 [3]; PvENT4 oocytes, 150 nM [3H]adenine, 60 min, compound 10 μM", "result": "insensitive"}, {"measurement": "Inhibition of adenine uptake", "setting": "PfENT4 [4]; PfENT4 oocytes, 150 nM [3H]adenine, 60 min, compound 10 μM", "result": "insensitive"}]}, {"smiles": "O=c1[nH]cnc2c1ncn2[C@@H]1O[C@H](CO)[C@@H](O)[C@H]1O", "note": "[inosine]", "values": [{"measurement": "Uptake of radiolabeled substrate relative to H2O-injected oocytes", "setting": "PvENT4 [1]", "result": "greater uptake"}, {"measurement": "Uptake of radiolabeled substrate relative to H2O-injected oocytes", "setting": "PfENT4 [2]", "result": "greater uptake"}]}, {"smiles": "O=c1[nH]cnc2nc[nH]c12", "note": "[hypoxanthine]", "values": [{"measurement": "Uptake of radiolabeled substrate relative to H2O-injected oocytes", "setting": "PvENT4 [1]", "result": "no observed uptake"}, {"measurement": "Inhibition of adenine uptake", "setting": "PvENT4 [3]; PvENT4 oocytes, 150 nM [3H]adenine, 60 min, concentration shown only in Figure 9", "result": "did not inhibit"}, {"measurement": "Inhibition of adenine uptake", "setting": "PfENT4 [4]; PfENT4 oocytes, 150 nM [3H]adenine, 60 min, concentration shown only in Figure 9", "result": "did not inhibit"}, {"measurement": "Uptake of radiolabeled substrate relative to H2O-injected oocytes", "setting": "PfENT4 [2]", "result": "no observed uptake"}]}, {"smiles": "OCCN(CCO)c1nc(N2CCCCC2)c2nc(N(CCO)CCO)nc(N3CCCCC3)c2n1", "note": "[dipyridamole]", "values": [{"measurement": "inhibition at 10 µM", "setting": "PvENT4 [3]; [6]", "result": "~80", "unit": "%"}, {"measurement": "Sensitivity of PfENT1 to inhibitor", "setting": "PfENT1", "result": "insensitive"}, {"measurement": "inhibition at 10 µM", "setting": "PfENT4 [4]; [6]", "result": "~80", "unit": "%"}, {"measurement": "Inhibition of recombinant P. falciparum phosphodiesterase-1", "setting": "[5]", "result": "inhibits"}]}, {"smiles": "Nc1ncnc2c1ncn2[C@@H]1O[C@H](CO)[C@@H](O)[C@H]1O", "note": "[adenosine]", "values": [{"measurement": "Uptake of radiolabeled substrate relative to H2O-injected oocytes", "setting": "PvENT4 [1]", "result": "greater uptake"}, {"measurement": "Saturability of concentration-dependent uptake (Michaelis-Menten)", "setting": "PvENT4 [1]; PvENT4 oocytes", "result": "not saturable"}, {"measurement": "Uptake of radiolabeled substrate relative to H2O-injected oocytes", "setting": "PfENT4 [2]", "result": "greater uptake"}, {"measurement": "Saturability of concentration-dependent uptake (Michaelis-Menten)", "setting": "PfENT4 [2]; PfENT4 oocytes", "result": "not saturable"}]}, {"smiles": "O=c1[nH]c(=O)c2[nH]c(=O)[nH]c2[nH]1", "note": "[urate]", "values": [{"measurement": "Competition for adenine transport", "setting": "PvENT4 [3]; PvENT4 oocytes, 150 nM [3H]adenine, 60 min, compound 500 μM", "result": "did not compete"}, {"measurement": "Competition for adenine transport", "setting": "PfENT4 [4]; PfENT4 oocytes, 150 nM [3H]adenine, 60 min, compound 500 μM", "result": "did not compete"}]}, {"smiles": "Nc1ncnc2c1ncn2[C@H]1C[C@H](O)[C@@H](CO)O1", "note": "[2′-deoxyadenosine]", "values": [{"measurement": "Uptake of radiolabeled substrate relative to H2O-injected oocytes", "setting": "PvENT4 [1]", "result": "greater uptake"}, {"measurement": "Uptake of radiolabeled substrate relative to H2O-injected oocytes", "setting": "PfENT4 [2]", "result": "greater uptake"}]}, {"smiles": "Nc1ncnc2[nH]cnc12", "note": "[adenine]", "values": [{"measurement": "Uptake of radiolabeled substrate relative to H2O-injected oocytes", "setting": "PvENT4 [1]", "result": "greater uptake"}, {"measurement": "Saturability of concentration-dependent uptake (Michaelis-Menten)", "setting": "PvENT4 [1]; PvENT4 oocytes", "result": "not saturable"}, {"measurement": "Ki", "setting": "PvENT4 [3]", "result": "6 ± 2", "unit": "µM"}, {"measurement": "Ki", "setting": "PfENT4 [4]", "result": "7 ± 2", "unit": "µM"}, {"measurement": "Uptake of radiolabeled substrate relative to H2O-injected oocytes", "setting": "PfENT4 [2]", "result": "greater uptake"}, {"measurement": "Saturability of concentration-dependent uptake (Michaelis-Menten)", "setting": "PfENT4 [2]; PfENT4 oocytes", "result": "not saturable"}]}, {"smiles": "O=c1[nH]cnc2c([C@@H]3N[C@H](CO)[C@@H](O)[C@H]3O)c[nH]c12", "note": "[Immucillin-H]", "values": [{"measurement": "Inhibition of [3H]adenine uptake at 7 mM compared with 2 mM", "setting": "PfENT4 [4]; PfENT4 oocytes, 150 nM [3H]adenine, 60 min", "result": "significantly greater inhibition"}]}, {"smiles": "Cc1c[nH]c(=O)[nH]c1=O", "note": "[thymine]", "values": [{"measurement": "Uptake of radiolabeled substrate relative to H2O-injected oocytes", "setting": "PvENT4 [1]", "result": "less accumulation"}]}, {"smiles": "Cc1cn([C@H]2C[C@H](O)[C@@H](CO)O2)c(=O)[nH]c1=O", "note": "[thymidine]", "values": [{"measurement": "Uptake of radiolabeled substrate relative to H2O-injected oocytes", "setting": "PvENT4 [1]", "result": "displayed uptake"}, {"measurement": "Uptake of radiolabeled substrate relative to H2O-injected oocytes", "setting": "PfENT4 [2]", "result": "displayed uptake"}]}, {"smiles": "C/C(=C\\CNc1ncnc2[nH]cnc12)CO", "note": "[trans-zeatin]", "values": [{"measurement": "Ki", "setting": "PvENT4 [3]", "result": "193 ± 21", "unit": "µM"}, {"measurement": "Ki", "setting": "PfENT4 [4]", "result": "20 ± 3", "unit": "µM"}]}, {"smiles": "Nc1ncnc2c1ncn2[C@@H]1O[C@H](COP(=O)(O)O)[C@@H](O)[C@H]1O", "note": "[AMP, adenosine monophosphate]", "values": [{"measurement": "Transport of radiolabeled substrate", "setting": "PvENT4 [1]; PvENT4 oocytes, 1.5 μM, in presence of 250 μM α,β-methyleneADP", "result": "not observed"}, {"measurement": "Substrate of PfENT1", "setting": "PfENT1", "result": "not substrates"}, {"measurement": "Transport of radiolabeled substrate", "setting": "PfENT4 [2]; PfENT4 oocytes, 1.5 μM, in presence of 250 μM α,β-methyleneADP", "result": "not observed"}]}, {"smiles": "CC(C)=CCNc1ncnc2nc[nH]c12", "note": "[isopentenyl adenine]", "values": [{"measurement": "IC50", "setting": "P. falciparum parasites", "result": 8.34, "unit": "µM"}]}]}
